Experimental data from patent publication US20210023012A1, “Solid Pharmaceutical Compositions for Treating HCV” (AbbVie Inc., priority 2019, published 2021).

Experiments:
Type in all cases: in vitro ADME
OATP1B1/3 = test: Substrate of transporter OATP1B1/3
P-gp = P-gp (Homo sapiens, UniProt P08183); test: Substrate of transporter P-gp
BCRP = target: T1, BCRP (Homo sapiens, UniProt Q9UNQ0); test: Substrate of transporter BCRP
T1 sequence (Q9UNQ0 1-655): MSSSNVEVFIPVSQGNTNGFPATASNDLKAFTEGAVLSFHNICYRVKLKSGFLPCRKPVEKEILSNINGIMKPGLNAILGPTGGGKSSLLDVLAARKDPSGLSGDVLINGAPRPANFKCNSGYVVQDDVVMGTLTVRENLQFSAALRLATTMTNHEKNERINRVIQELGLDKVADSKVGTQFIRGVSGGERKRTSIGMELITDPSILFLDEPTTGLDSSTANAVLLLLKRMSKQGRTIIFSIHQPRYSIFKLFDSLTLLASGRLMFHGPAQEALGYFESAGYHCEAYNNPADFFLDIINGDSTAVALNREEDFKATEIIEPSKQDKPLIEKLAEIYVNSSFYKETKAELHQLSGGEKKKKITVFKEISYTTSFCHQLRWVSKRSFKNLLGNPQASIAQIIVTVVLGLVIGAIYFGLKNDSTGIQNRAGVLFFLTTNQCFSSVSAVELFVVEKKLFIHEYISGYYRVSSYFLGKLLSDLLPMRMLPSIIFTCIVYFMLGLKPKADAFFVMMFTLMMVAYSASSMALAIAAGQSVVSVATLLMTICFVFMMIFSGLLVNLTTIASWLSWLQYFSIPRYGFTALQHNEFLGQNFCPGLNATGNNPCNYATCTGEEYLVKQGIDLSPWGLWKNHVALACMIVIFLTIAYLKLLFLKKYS

Chain of P-gp (P08183 whole entry): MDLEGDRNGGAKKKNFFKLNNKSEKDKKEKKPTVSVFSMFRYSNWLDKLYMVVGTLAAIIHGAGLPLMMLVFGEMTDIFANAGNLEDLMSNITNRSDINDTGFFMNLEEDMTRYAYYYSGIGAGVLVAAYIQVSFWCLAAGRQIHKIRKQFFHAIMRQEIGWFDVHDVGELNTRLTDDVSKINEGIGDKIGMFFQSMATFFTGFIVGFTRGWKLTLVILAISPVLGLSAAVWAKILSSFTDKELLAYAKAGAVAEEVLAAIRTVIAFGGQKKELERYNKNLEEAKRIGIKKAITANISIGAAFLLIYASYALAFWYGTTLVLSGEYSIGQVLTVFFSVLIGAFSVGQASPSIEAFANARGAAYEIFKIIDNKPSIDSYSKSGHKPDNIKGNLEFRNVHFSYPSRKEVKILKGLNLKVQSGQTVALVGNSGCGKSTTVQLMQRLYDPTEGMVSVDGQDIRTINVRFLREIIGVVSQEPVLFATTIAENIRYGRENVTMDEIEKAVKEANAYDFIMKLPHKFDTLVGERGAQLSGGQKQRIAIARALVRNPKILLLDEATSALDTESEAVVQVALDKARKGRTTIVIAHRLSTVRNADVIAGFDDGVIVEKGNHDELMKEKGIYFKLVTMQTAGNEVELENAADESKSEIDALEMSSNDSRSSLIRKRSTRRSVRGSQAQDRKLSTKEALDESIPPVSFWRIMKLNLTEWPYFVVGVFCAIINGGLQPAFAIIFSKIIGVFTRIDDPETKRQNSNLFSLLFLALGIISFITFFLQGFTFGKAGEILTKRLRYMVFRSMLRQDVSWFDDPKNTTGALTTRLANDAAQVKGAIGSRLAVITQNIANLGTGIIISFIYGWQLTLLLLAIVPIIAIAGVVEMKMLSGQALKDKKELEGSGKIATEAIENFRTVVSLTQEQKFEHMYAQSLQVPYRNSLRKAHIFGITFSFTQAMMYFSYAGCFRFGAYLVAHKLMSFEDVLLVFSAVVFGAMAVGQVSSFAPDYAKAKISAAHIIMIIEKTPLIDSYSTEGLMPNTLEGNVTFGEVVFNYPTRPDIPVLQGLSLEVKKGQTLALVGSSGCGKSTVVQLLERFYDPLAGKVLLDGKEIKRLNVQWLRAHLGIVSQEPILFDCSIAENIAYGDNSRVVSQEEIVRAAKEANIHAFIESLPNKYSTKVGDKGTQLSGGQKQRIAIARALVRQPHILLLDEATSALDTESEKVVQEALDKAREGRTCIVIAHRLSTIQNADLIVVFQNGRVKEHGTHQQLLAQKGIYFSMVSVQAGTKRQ

Substrate of transporter (OATP1B1/3)	Substrate of transporter (P-gp)	Substrate of transporter (BCRP)	Compound
OATP1B1/3	P-gp,	–	CC(C)(C)[C@@H]1NC(=O)O[C@@H]2CCC[C@H]2OC/C=C/C(F)(F)c2nc3ccccc3nc2O[C@@H]2C[C@@H](C(=O)N[C@]3(C(=O)NS(=O)(=O)C4(C)CC4)C[C@H]3C(F)F)N(C2)C1=O [Compound 1]
–	–	not excluded	COC(=O)N[C@H](C(=O)N1CCC[C@H]1c1nc2cc([C@H]3CC[C@H](c4cc5nc([C@@H]6CCCN6C(=O)[C@@H](NC(=O)OC)[C@@H](C)OC)[nH]c5cc4F)N3c3cc(F)c(N4CCC(c5ccc(F)cc5)CC4)c(F)c3)c(F)cc2[nH]1)[C@@H](C)OC [Compound 2]
